Assay results reported in patent publication US20200016174A1, “PHARMACEUTICAL COMPOSITION” (MEXICHEM FLUOR S.A. DE C.V., priority 2016, published 2020).
Structures can show the parent of a compound that is named as a salt.

Experiments:
Format in all cases: physicochemical
[1] = In vitro aerosolization performance (Next Generation Impactor) of beclomethasone dipropionate / formoterol fumarate dihydrate combination MDI formulations; settings: after 1 month at ambient conditions, NGI 30 L/min
[2] = In vitro aerosolization performance (Next Generation Impactor) of beclomethasone dipropionate MDI formulations in HFA-152a with varying ethanol and glycerol; settings: immediately after preparation
Procedure: A number of experiments were conducted to investigate the effects of glycerol on the in vitro aerosolization performance of drug formulations of beclomethasone dipropionate delivered from a metered dose inhaler (MDI) using HFA-152a as the propellant.
Pharmaceutical formulations of beclomethasone dipropionate were prepared in HFA-152a (Mexichem, UK). […] Anhydrous ethanol in an amount of 5, 10 or 15 weight % based on the total weight of the formulation and glycerol in an amount of 0, 1 or 2 weight %, again based on the total weight of the formulation, were then added to the canisters. […] The nominal dose of beclomethasone dipropionate was […].

[3] = Chemical stability (total impurities) of beclomethasone dipropionate formulations with varying ethanol and glycerol in uncoated aluminium cans; settings: for % Total Imps T = 0 / % Total Imps T = 1 M @ 40° C./75% RH / % Total Imps T = 3 M @ 40° C./75% RH: uncoated aluminium cans
Procedure: A number of experiments were conducted to investigate the stability of beclomethasone dipropionate in HFA-134a and HFA-152a.
Anhydrous ethanol in an amount of 5, 10 or 15 weight % based on the total weight of the formulation and glycerol in an amount of 0, 1 or 2 weight %, again based on the total weight of the formulation, were then added to the canisters. […] The nominal dose of beclomethasone dipropionate was […].

[4] = combination formulation in HFA-134a and 10 weight % ethanol
[5] = combination formulation in HFA-152a and 10 weight % ethanol
[6] = 5 wt. % ethanol, 0 wt. % glycerol
[7] = 5 wt. % ethanol, 1 wt. % glycerol
[8] = 5 wt. % ethanol, 2 wt. % glycerol
[9] = 10 wt. % ethanol, 0 wt. % glycerol
[10] = 10 wt. % ethanol, 1 wt. % glycerol
[11] = 10 wt. % ethanol, 2 wt. % glycerol
[12] = 15 wt. % ethanol, 0 wt. % glycerol
[13] = 15 wt. % ethanol, 1 wt. % glycerol
[14] = 15 wt. % ethanol, 2 wt. % glycerol
[15] = HFA-134a, 5 wt. % ethanol, 0 wt. % glycerol
[16] = HFA-134a, 5 wt. % ethanol, 1 wt. % glycerol
[17] = HFA-134a, 5 wt. % ethanol, 2 wt. % glycerol
[18] = HFA-134a, 10 wt. % ethanol, 0 wt. % glycerol
[19] = HFA-134a, 10 wt. % ethanol, 1 wt. % glycerol
[20] = HFA-134a, 10 wt. % ethanol, 2 wt. % glycerol
[21] = HFA-134a, 15 wt. % ethanol, 0 wt. % glycerol
[22] = HFA-134a, 15 wt. % ethanol, 1 wt. % glycerol
[23] = HFA-134a, 15 wt. % ethanol, 2 wt. % glycerol
[24] = HFA-152a, 5 wt. % ethanol, 0 wt. % glycerol
[25] = HFA-152a, 5 wt. % ethanol, 1 wt. % glycerol
[26] = HFA-152a, 5 wt. % ethanol, 2 wt. % glycerol
[27] = HFA-152a, 10 wt. % ethanol, 0 wt. % glycerol
[28] = HFA-152a, 10 wt. % ethanol, 1 wt. % glycerol
[29] = HFA-152a, 10 wt. % ethanol, 2 wt. % glycerol
[30] = HFA-152a, 15 wt. % ethanol, 0 wt. % glycerol
[31] = HFA-152a, 15 wt. % ethanol, 1 wt. % glycerol
[32] = HFA-152a, 15 wt. % ethanol, 2 wt. % glycerol

## CCC(=O)OCC(=O)[C@@]1(OC(=O)CC)[C@@H](C)C[C@H]2[C@@H]3CCC4=CC(=O)C=C[C@]4(C)[C@@]3(Cl)[C@@H](O)C[C@@]21C [beclomethasone dipropionate]
[1]; [4]
  FPFED %: 63.16%
  Fine Particle Dose: 98.92 µg
  MMAD ± GSD: 1.41 ± 1.95 μm
[1]; [5]
  FPFED %: 55.67%
  Fine Particle Dose: 105.11 µg
  MMAD ± GSD: 1.57 ± 1.98 μm
[2]; [6]
  FPFED: 65.17%
  FPM: 114.36 µg
  MMAD (μm) ± GSD: 1.27 ± 1.80 μm
[2]; [7]
  FPFED: 67.97%
  FPM: 123.94 µg
  MMAD (μm) ± GSD: 1.55 ± 1.93 μm
[2]; [8]
  FPFED: 65.69%
  FPM: 120.25 µg
  MMAD (μm) ± GSD: 1.62 ± 2.06 μm
[2]; [9]
  FPFED: 59.47%
  FPM: 117.15 µg
  MMAD (μm) ± GSD: 1.33 ± 1.84 μm
[2]; [10]
  FPFED: 58.64%
  FPM: 116.83 µg
  MMAD (μm) ± GSD: 2.09 ± 1.92 μm
[2]; [11]
  FPFED: 55.76%
  FPM: 104.23 µg
  MMAD (μm) ± GSD: 2.19 ± 2.12 μm
[2]; [12]
  FPFED: 50.99%
  FPM: 102.86 µg
  MMAD (μm) ± GSD: 1.42 ± 2.02 μm
[2]; [13]
  FPFED: 48.85%
  FPM: 96.11 µg
  MMAD (μm) ± GSD: 2.29 ± 2.06 μm
[2]; [14]
  FPFED: 43.57%
  FPM: 83.04 µg
  MMAD (μm) ± GSD: 2.59 ± 2.12 μm
[3]; [15]
  % Total Imps T = 0: 0.89%
  % Total Imps T = 1 M @ 40° C./75% RH: 1.58%
  % Total Imps T = 3 M @ 40° C./75% RH: 2.08%
[3]; [16]
  % Total Imps T = 0: 0.34%
  % Total Imps T = 1 M @ 40° C./75% RH: 1.91%
  % Total Imps T = 3 M @ 40° C./75% RH: 2.14%
[3]; [17]
  % Total Imps T = 0: 0.55%
  % Total Imps T = 1 M @ 40° C./75% RH: 0.78%
  % Total Imps T = 3 M @ 40° C./75% RH: 1.18%
[3]; [18]
  % Total Imps T = 0: 1.16%
  % Total Imps T = 1 M @ 40° C./75% RH: 1.82%
  % Total Imps T = 3 M @ 40° C./75% RH: 2.21%
[3]; [19]
  % Total Imps T = 0: 1.34%
  % Total Imps T = 1 M @ 40° C./75% RH: 2.25%
  % Total Imps T = 3 M @ 40° C./75% RH: 2.49%
[3]; [20]
  % Total Imps T = 0: 1.49%
  % Total Imps T = 1 M @ 40° C./75% RH: 1.97%
  % Total Imps T = 3 M @ 40° C./75% RH: 2.35%
[3]; [21]
  % Total Imps T = 0: 1.08%
  % Total Imps T = 1 M @ 40° C./75% RH: 2.35%
  % Total Imps T = 3 M @ 40° C./75% RH: 4.21%
[3]; [22]
  % Total Imps T = 0: 2.88%
  % Total Imps T = 1 M @ 40° C./75% RH: 3.15%
  % Total Imps T = 3 M @ 40° C./75% RH: 3.99%
[3]; [23]
  % Total Imps T = 0: 2.95%
  % Total Imps T = 1 M @ 40° C./75% RH: 4.22%
  % Total Imps T = 3 M @ 40° C./75% RH: 4.89%
[3]; [24]
  % Total Imps T = 0: 0.08%
  % Total Imps T = 1 M @ 40° C./75% RH: 0.16%
  % Total Imps T = 3 M @ 40° C./75% RH: 0.35%
[3]; [25]
  % Total Imps T = 0: 0.11%
  % Total Imps T = 1 M @ 40° C./75% RH: 0.15%
  % Total Imps T = 3 M @ 40° C./75% RH: 0.28%
[3]; [26]
  % Total Imps T = 0: 0.09%
  % Total Imps T = 1 M @ 40° C./75% RH: 0.21%
  % Total Imps T = 3 M @ 40° C./75% RH: 0.34%
[3]; [27]
  % Total Imps T = 0: 0.21%
  % Total Imps T = 1 M @ 40° C./75% RH: 0.35%
  % Total Imps T = 3 M @ 40° C./75% RH: 0.42%
[3]; [28]
  % Total Imps T = 0: 0.34%
  % Total Imps T = 1 M @ 40° C./75% RH: 0.36%
  % Total Imps T = 3 M @ 40° C./75% RH: 0.55%
[3]; [29]
  % Total Imps T = 0: 0.23%
  % Total Imps T = 1 M @ 40° C./75% RH: 0.29%
  % Total Imps T = 3 M @ 40° C./75% RH: 0.31%
[3]; [30]
  % Total Imps T = 0: 0.56%
  % Total Imps T = 1 M @ 40° C./75% RH: 0.89%
  % Total Imps T = 3 M @ 40° C./75% RH: 1.11%
[3]; [31]
  % Total Imps T = 0: 0.66%
  % Total Imps T = 1 M @ 40° C./75% RH: 0.79%
  % Total Imps T = 3 M @ 40° C./75% RH: 1.56%
[3]; [32]
  % Total Imps T = 0: 0.72%
  % Total Imps T = 1 M @ 40° C./75% RH: 0.89%
  % Total Imps T = 3 M @ 40° C./75% RH: 1.48%
[3]; all investigated levels of ethanol and glycerol, comparison of Tables 10 and 11
  stability with HFA-152a as propellant rather than HFA-134a: significantly higher

## COc1ccc(CC(C)NCC(O)c2ccc(O)c(NC=O)c2)cc1 (stereo not shown) [formoterol fumarate dihydrate]
[1]; [4]
  FPFED %: 66.35%
  Fine Particle Dose: 3.67 µg
  MMAD ± GSD: 1.36 ± 2.00 μm
[1]; [5]
  FPFED %: 60.01%
  Fine Particle Dose: 3.57 µg
  MMAD ± GSD: 1.51 ± 2.08 μm
